Test results published in patent US20130309380A1, “METHODS FOR PRESERVING FRESH PRODUCE” (NatureSeal, Inc., priority 2003, published 2013).

Columns and labels:
Bartlett pears [1] = experiment: Hardness of sliced Bartlett pears
Method: (§1) The firmness or hardness of the fruit is the force required for a probe to penetrate the fruit a given distance into the fruit. The firmness is determined using a Quality and Test System 25 and TA 40 probe from Stevens Company. The TA 40 probe a black acetate, 4.5 mm diameter, 20 mm long rod probe having a flat end. The following settings were employed in the QTS system: the test type is a compression test of one cycle, 0 second hold time, 0 second recovery, 5 g trigger point, 30 mm/min test speed, target unit distance, and a target value of 3 mm. The apple pieces were 1 cm thick.
(§2) Whole Red Delicious apples were rinsed with tap water, sanitized with a sodium hypochlorite solution containing 100 ppm chlorine, then cored and sliced. The apple slices were immersed in water for 0.5 to 2 minutes. Then the apple slices were dipped into produce preservative solution containing 4% ascorbic acid and 1.59% K2CO3 having a pH 5.69 for 1 minute. The slices were removed from the solution and drained for 1-2 minutes, sealed in polyethylene bags, and stored at 2-5° C. For controls, sliced apples either not treated or were dipped into either 4% ascorbic acid with 0.66% NaOH to adjust the pH to 4.45. For comparison, sliced apples were dipped into a solution containing 4% ascorbic acid and 1.22% Na2CO3 and having a pH of 5.58.
(§3) Bartlett pears were preserved with the fresh produce preservative as in Example 1a, with preservative solution that contained 4% ascorbic acid and 1.59% K2-CO3. For comparison, pears were treated with a comparative solution that contained 4% ascorbic acid and 1.22% Na2CO3.

Red Delicious apples [2] = experiment: Evaluation of sliced Red Delicious apples (Examples 14 and 15, scores)
Method: The texture, flavor, and moistness of the fruit were evaluated by tasting fruit samples. The color and/or appearance was also evaluated by visual inspection. […] Then the apple slices were dipped for 1 minute into the following solutions: 3% ascorbic acid and 0.8% NH4Cl. For comparision, untreated slices were used as well as apple slices treated with 3% ascorbic acid or 2% ascorbic acid. The apples were removed, drained for 1-2 minutes, sealed in 2 mil, polyethylene bags, and stored at 2-5° C. Red Delicious apples were preserved with the fresh produce preservative as in Example 14a, except that the preservative solution contained 3.0% ascorbic acid and 0.8% CuSO4.

Red Delicious apples [3] = experiment: Hardness of sliced Red Delicious apples measured with QTS25
Method: as §1, §2
The apples were evaluated and scored on a scale of 0-10 at time intervals. A score of 10 means that the fruit's color and appearance is as good as fresh cut fruit. A score of 7 is the minimum acceptable appearance. Hardness was measured with QTS25.

Granny Smith apples = experiment: Evaluation of sliced Granny Smith apples preserved with fresh produce preservative (scores); conditions: scale to 10
Description: Red Delicious apples and Granny Smith apples were preserved with the fresh produce preservative as in Example 1 a, except that the preservative solution contained 4% ascorbic acid and 1% Li2CO3.

Bramley apples = experiment: Water released by sliced Bramley apples
Method: The firmness of the produce in Example 11a were evaluated by bending produce samples. Appearance was evaluated by visual inspection. The moisture was evaluated by measuring the amount of water the produce released.
Whole Bramley apples free from blemishes or bruises, were rinsed with water, sanitized with a sodium hypochlorite solution having 100 parts per million available chlorine, for two minutes, then peeled, cored, and sliced. The sliced apples were dipped into a fresh produce preservative solution that contained 5.12% strontium ascorbate; the fresh produce preservative solution contained 4.12% ascorbic acid and 1.79% […], for about 30 to 60 seconds. The apples were then drained in a colander for one minute. The apple slices and the colander were placed in 500 micron plastic bags from SunSet Packaging, stored at 4° C. and evaluated several times over a 15 day period. Water which collected in the plastic bag was removed and weighed.
For comparison, similarly prepared apple slices were placed in one of several solutions that contained either: 4.3% ascorbic acid and 1.13% hydrated MgCO3, specifically 4MgCO3.Mg(OH)25H2O or a 5.0% w/w aqueous solution of calcium ascorbate dihydrate, having a pH of 7.2; or a 5.3% w/w solution, of 4.12% ascorbic acid and 1.17% calcium carbonate,; or 6% ascorbic acid having a pH of 2.3; or 48 g ascorbic acid, 48 g citric acid, 16 g CaCl2 and 48 g NaCl in 800 g water, with a pH of 1.2; or 6% w/w citric acid and 6% w/w ascorbic acid; or 4.64% sodium ascorbate having 4.13% ascorbic acid and 1.18% NaCo3. […]

Bartlett pears [4] = experiment: Evaluation of sliced Bartlett pears preserved with fresh produce preservative (scores); parameters: key: 1–10 scale, 10 = freshly cut fruit; below 7 not acceptable; conditions: for Color / Flavor / Moistness / Texture: scale to 10; for color/appearance score: scale to 10 (Table 5)
Method: The texture, flavor, and moistness of the fruit were evaluated by tasting fruit samples. The color and/or appearance was also evaluated by visual inspection. The color, texture, moistness and flavor were then evaluated according to a scale of either 1 to 10, with 10 being the value assigned to a freshly cut piece of comparative fruit or vegetable. A value of less than 7 is not acceptable.
as §2, §3
Bartlett pears were preserved with the fresh produce preservative as in Example 1a, except that the preservative solution contained 4% ascorbic acid and 1% Li2CO3.

O=C1O[C@H]([C@@H](O)CO)C(O)=C1O [Ascorbic Acid, ascorbic acid] was tested, and the “Hardness” value (Bartlett pears [1]; 0 hour) was 2215 g, the “Hardness” value (Bartlett pears [1]; 1 week) was 315 g and the “Hardness” value (Bartlett pears [1]; 2 weeks) was 79 g. The color/appearance score (Red Delicious apples [2]; 1 hour, scale to 10 (Table 15)) was 10, the color/appearance score (Red Delicious apples [2]; 1 hour, scale to 10 (Table 16)) was 10 and the color/appearance score (Red Delicious apples [2]; 24 hours, scale to 10 (Table 15), listed as 2% Ascorbic Acid Control, 2% Ascorbic Acid control dip) was 5.33. It also gave a color/appearance score (Red Delicious apples [2]; 24 hours, scale to 10 (Table 15), listed as 3% Ascorbic Acid Control, 3% Ascorbic Acid control dip) of 6, a color/appearance score (Red Delicious apples [2]; 24 hours, scale to 10 (Table 16), listed as 2% Ascorbic Acid Control, 2% Ascorbic Acid control) of 5 and a color/appearance score (Red Delicious apples [2]; 24 hours, scale to 10 (Table 16), listed as 3% Ascorbic Acid Control, 3% Ascorbic Acid control) of 6. For the same compound, the color/appearance score (Red Delicious apples [2]; Day 3, scale to 10 (Table 15), listed as 2% Ascorbic Acid Control, 2% Ascorbic Acid control dip) was 5, the color/appearance score (Red Delicious apples [2]; Day 3, scale to 10 (Table 15), listed as 3% Ascorbic Acid Control, 3% Ascorbic Acid control dip) was 6 and the color/appearance score (Red Delicious apples [2]; Day 3, scale to 10 (Table 16), listed as 2% Ascorbic Acid Control, 2% Ascorbic Acid control) was 5. It also gave a color/appearance score (Red Delicious apples [2]; Day 3, scale to 10 (Table 16), listed as 3% Ascorbic Acid Control, 3% Ascorbic Acid control) of 6, a color/appearance score (Red Delicious apples [2]; Day 4, scale to 10 (Table 15), listed as 2% Ascorbic Acid Control, 2% Ascorbic Acid control dip) of 6 and a color/appearance score (Red Delicious apples [2]; Day 4, scale to 10 (Table 15), listed as 3% Ascorbic Acid Control, 3% Ascorbic Acid control dip) of 4. It also gave a color/appearance score (Red Delicious apples [2]; Day 5, scale to 10 (Table 15), listed as 2% Ascorbic Acid Control, 2% Ascorbic Acid control dip) of 6, a color/appearance score (Red Delicious apples [2]; Day 5, scale to 10 (Table 15), listed as 3% Ascorbic Acid Control, 3% Ascorbic Acid control dip) of 4 and a color/appearance score (Red Delicious apples [2]; Day 6, scale to 10 (Table 15), listed as 2% Ascorbic Acid Control, 2% Ascorbic Acid control dip) of 6. It also gave a color/appearance score (Red Delicious apples [2]; Day 6, scale to 10 (Table 15), listed as 3% Ascorbic Acid Control, 3% Ascorbic Acid control dip) of 4, a Hardness (Red Delicious apples [3]; 0 hour) of 2083 and a Hardness (Red Delicious apples [3]; 1 week at 2-5° C.) of 1578. For the same compound, the Hardness (Red Delicious apples [3]; 2 week at 2-5° C.) was 1072, the color/appearance score (Granny Smith apples; 1 week) was 6 and the color/appearance score (Granny Smith apples; 1 day) was 10. The color/appearance score (Granny Smith apples; 3 days) was 10, the “Water Released” value (Bramley apples; 4 hr at 4° C.) was 6.78 g and the “Water Released” value (Bramley apples; 28 hr at 4° C.) was 5.34 g. For the same compound, the “Water Released” value (Bramley apples; 52 hr at 4° C.) was 4.19 g, the “Water Released” value (Bramley apples; 94 hr at 4° C.) was 2.94 g and the “Water Released” value (Bramley apples; 191 hr at 4° C.) was 2.63 g. The Color (Bartlett pears [4]; 0 hour) was 10, the Flavor (Bartlett pears [4]; 0 hour) was 5 and the Moistness (Bartlett pears [4]; 0 hour) was 10. The Texture (Bartlett pears [4]; 0 hour) was 10, the Color (Bartlett pears [4]; 1 week) was 8.6 and the Flavor (Bartlett pears [4]; 1 week) was 8.8. It also gave a Moistness (Bartlett pears [4]; 1 week) of 7, a Texture (Bartlett pears [4]; 1 week) of 3 and a Color (Bartlett pears [4]; 2 weeks) of 6.4. For the same compound, the Flavor (Bartlett pears [4]; 2 weeks) was 3.4, the Texture (Bartlett pears [4]; 2 weeks) was 1 and the Color (Bartlett pears [4]; 1 day) was 10. It also gave a Flavor (Bartlett pears [4]; 1 day) of 9, a Moistness (Bartlett pears [4]; 1 day) of 10 and a Texture (Bartlett pears [4]; 1 day) of 9.6. The color/appearance score (Bartlett pears [4]; 1 day) was 10 and the color/appearance score (Bartlett pears [4]; 2 days) was 6.
